Measured values from US20260207563A1, “UREA COMPOUNDS AS ACTIVATORS OF POTASSIUM CHANNELS KV7.2/7.3 USEFUL IN THE TREATMENT OF CNS AND PNS DISORDERS” (ANGELINI PHARMA S.P.A., priority 2022, published 2026).
Blank lines part the entries; values can stand above or below the molecule they belong to.

Legend:
Type in all cases: cell-based
[1] = biological target: T1, heteromeric KV7.3/KV7.5 channel (KCNQ3, KCNQ5) (Homo sapiens, UniProt O43525+Q9NR82); assay: Automated patch-clamp counter-screening against KV7.3/KV7.5 channel; conditions: HEK293 cells expressing Kv7.3/KV7.5; class by maximal shift in the Vhalf at 30 μM
T1 construct: host or cells: HEK293
How it was run: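 Potency came from a 4-parameter logistic fit of mean voltage-of-half-activation shifts, yielding EC50 and maximal shift; selectivity was judged on the shift at 30 μM. Compounds were applied at ten 3-fold dilutions from 30 μM in quadruplicate to HEK293 cells stably carrying Kv7.3 with tet-inducible Kv7.5.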

[2] = biological target: T2, homomeric KV7.4 channel (KCNQ4) (Homo sapiens, UniProt P56696); assay: Automated patch-clamp (Qube) counter-screening assay against KV7.4 channel; conditions: CHO-K1 cells expressing KV7.4; class by maximal shift in the Vhalf at 30 μM
T2 construct: host or cells: CHO-K1
How it was run: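 EC50 and maximal shift in half-activation voltage come from 4-parameter logistic fits of mean Vhalf shifts. The series had ten 1-in-3 concentrations, highest 30 μM, each tested in quadruplicate. Recordings used automated Qube patch clamp on a stable CHO-K1 line expressing KCNQ4, and selectivity was judged from the 30 μM Vhalf shift.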

[3] = biological target: T3, heteromeric KV7.2/KV7.3 channels (KCNQ2, KCNQ3) (Homo sapiens, UniProt O43525+O43526); assay: Automated patch-clamp (Sophion Qube 384) potency assay against KV7.2/KV7.3 channels; conditions: CHO-K1/Kv7.2/Kv7.3 cells; for EC50: EC50 from concentration-response of shift in Vhalf, 10 concentrations up to 30 μM, read-out: Kv7.2/7.3 EC50; for Kv7.2/7.3 ΔV1/2: maximal shift in the Vhalf from the top of the curve
T3 construct: expressed in transfected cells; host or cells: CHO-K1
How it was run: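 Activator potency: EC50 from 4-parameter logistic fit of mean Vhalf shift across ten 1-in-3 dilutions starting at 30 μM (n=4), with DMSO (typically 0.3%) control. Currents recorded by leak-subtracted whole-cell clamp of stable CHO-K1 KV7.2/KV7.3 cells, held at −80 mV, stepped −100 to +20 mV then 0 mV tails.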

SMILES: O=C(NCC1CCCCC1)N[C@@H](CO)c1ccnc(OCC(F)(F)F)c1 [Compound 103]
- Kv7.3/7.5 selectivity criteria [1]: B (Non-selective compounds showed Kv7.4 and/or Kv7.3/7.5 ΔV1/2 higher than 15 mV (letter B in table 3))
- Kv7.4 selectivity criteria [2]: A (Selective compounds showed Kv7.4 and/or Kv7.3/7.5 ΔV1/2 equal to or lower than 15 mV (letter A in table 3))
- EC50 [3]: 1340 nM
- Kv7.2/7.3 ΔV1/2 [3]: 42.63 mV

SMILES: CC(NC(=O)NCCC1(C(F)(F)F)CC1)c1ccnc(OCC(F)(F)F)n1 (stereo not shown) [Compound 104]
- Kv7.3/7.5 selectivity criteria [1]: A (Selective compounds showed Kv7.4 and/or Kv7.3/7.5 ΔV1/2 equal to or lower than 15 mV (letter A in table 3))
- Kv7.4 selectivity criteria [2]: A (Selective compounds showed Kv7.4 and/or Kv7.3/7.5 ΔV1/2 equal to or lower than 15 mV (letter A in table 3))
- EC50 [3]: 3090 nM
- Kv7.2/7.3 ΔV1/2 [3]: 21.96 mV

SMILES: C[C@H](NC(=O)NC[C@H](O)C(C)(C)C)c1ccnc(OCC(F)(F)C(F)(F)F)c1 [Compound 105]
- Kv7.3/7.5 selectivity criteria [1]: A (Selective compounds showed Kv7.4 and/or Kv7.3/7.5 ΔV1/2 equal to or lower than 15 mV (letter A in table 3))
- Kv7.4 selectivity criteria [2]: B (Non-selective compounds showed Kv7.4 and/or Kv7.3/7.5 ΔV1/2 higher than 15 mV (letter B in table 3))
- EC50 [3]: 1500 nM
- Kv7.2/7.3 ΔV1/2 [3]: 35.29 mV

SMILES: O=C(NCCC1(C(F)(F)F)CC1)N1CCC[C@H]1c1ccnc(OCC(F)(F)F)c1 [Compound 106]
- Kv7.3/7.5 selectivity criteria [1]: A (Selective compounds showed Kv7.4 and/or Kv7.3/7.5 ΔV1/2 equal to or lower than 15 mV (letter A in table 3))
- Kv7.4 selectivity criteria [2]: A (Selective compounds showed Kv7.4 and/or Kv7.3/7.5 ΔV1/2 equal to or lower than 15 mV (letter A in table 3))
- EC50 [3]: 2840 nM
- Kv7.2/7.3 ΔV1/2 [3]: 28.47 mV

SMILES: O=C(NCc1ccnc(OCC(F)(F)F)n1)NCC1CCCCC1 [Compound 107]
- Kv7.3/7.5 selectivity criteria [1]: A (Selective compounds showed Kv7.4 and/or Kv7.3/7.5 ΔV1/2 equal to or lower than 15 mV (letter A in table 3))
- Kv7.4 selectivity criteria [2]: A (Selective compounds showed Kv7.4 and/or Kv7.3/7.5 ΔV1/2 equal to or lower than 15 mV (letter A in table 3))
- EC50 [3]: 3060 nM
- Kv7.2/7.3 ΔV1/2 [3]: 20.76 mV

SMILES: O=C(NCC1CCC(F)(F)CC1)N[C@@H](CO)c1ccnc(OCC(F)(F)F)c1 [Compound 108]
- Kv7.3/7.5 selectivity criteria [1]: A (Selective compounds showed Kv7.4 and/or Kv7.3/7.5 ΔV1/2 equal to or lower than 15 mV (letter A in table 3))
- Kv7.4 selectivity criteria [2]: A (Selective compounds showed Kv7.4 and/or Kv7.3/7.5 ΔV1/2 equal to or lower than 15 mV (letter A in table 3))
- EC50 [3]: 3180 nM
- Kv7.2/7.3 ΔV1/2 [3]: 26.46 mV

SMILES: O=C(NCCC1(C(F)(F)F)CC1)NCc1ccnc(C(F)F)c1 [Compound 109]
- Kv7.3/7.5 selectivity criteria [1]: A (Selective compounds showed Kv7.4 and/or Kv7.3/7.5 ΔV1/2 equal to or lower than 15 mV (letter A in table 3))
- Kv7.4 selectivity criteria [2]: A (Selective compounds showed Kv7.4 and/or Kv7.3/7.5 ΔV1/2 equal to or lower than 15 mV (letter A in table 3))
- EC50 [3]: 4790 nM
- Kv7.2/7.3 ΔV1/2 [3]: 16.81 mV

SMILES: C[C@H](NC(=O)N[C@@H]1CCc2ccc(F)cc21)c1ccnc(OCC(F)(F)F)n1 [Compound 110]
- Kv7.3/7.5 selectivity criteria [1]: B (Non-selective compounds showed Kv7.4 and/or Kv7.3/7.5 ΔV1/2 higher than 15 mV (letter B in table 3))
- Kv7.4 selectivity criteria [2]: A (Selective compounds showed Kv7.4 and/or Kv7.3/7.5 ΔV1/2 equal to or lower than 15 mV (letter A in table 3))
- EC50 [3]: 1920 nM
- Kv7.2/7.3 ΔV1/2 [3]: 28.73 mV

SMILES: O=C(NCc1ccnc(OCC(F)F)c1)N[C@@H]1CCc2ccc(F)cc21 [Compound 111]
- Kv7.3/7.5 selectivity criteria [1]: B (Non-selective compounds showed Kv7.4 and/or Kv7.3/7.5 ΔV1/2 higher than 15 mV (letter B in table 3))
- Kv7.4 selectivity criteria [2]: A (Selective compounds showed Kv7.4 and/or Kv7.3/7.5 ΔV1/2 equal to or lower than 15 mV (letter A in table 3))
- EC50 [3]: 2440 nM
- Kv7.2/7.3 ΔV1/2 [3]: 35.96 mV

Continued, in another order:

- EC50 [3]: 653 nM
- Kv7.2/7.3 ΔV1/2 [3]: 26.53 mV
SMILES: O=C(NCCC1(C(F)(F)F)CC1)N[C@@H](CO)c1ccnc(OCC(F)(F)F)c1 [Compound 112]
- Kv7.3/7.5 selectivity criteria [1]: A (Selective compounds showed Kv7.4 and/or Kv7.3/7.5 ΔV1/2 equal to or lower than 15 mV (letter A in table 3))
- Kv7.4 selectivity criteria [2]: A (Selective compounds showed Kv7.4 and/or Kv7.3/7.5 ΔV1/2 equal to or lower than 15 mV (letter A in table 3))

- EC50 [3]: 7640 nM
- Kv7.2/7.3 ΔV1/2 [3]: 27.22 mV
SMILES: O=C(NCc1ccnc(C(O)C(F)(F)F)c1)N[C@@H]1CCc2ccc(F)cc21 (stereo partly shown) [Compound 113]
- Kv7.3/7.5 selectivity criteria [1]: B (Non-selective compounds showed Kv7.4 and/or Kv7.3/7.5 ΔV1/2 higher than 15 mV (letter B in table 3))
- Kv7.4 selectivity criteria [2]: A (Selective compounds showed Kv7.4 and/or Kv7.3/7.5 ΔV1/2 equal to or lower than 15 mV (letter A in table 3))

- EC50 [3]: 672 nM
- Kv7.2/7.3 ΔV1/2 [3]: 32.56 mV
SMILES: CC1(NC(=O)NCc2ccnc(OCC(F)(F)F)c2)Cc2ccccc2C1 [Compound 114]
- Kv7.3/7.5 selectivity criteria [1]: B (Non-selective compounds showed Kv7.4 and/or Kv7.3/7.5 ΔV1/2 higher than 15 mV (letter B in table 3))
- Kv7.4 selectivity criteria [2]: A (Selective compounds showed Kv7.4 and/or Kv7.3/7.5 ΔV1/2 equal to or lower than 15 mV (letter A in table 3))

- EC50 [3]: 479 nM
- Kv7.2/7.3 ΔV1/2 [3]: 21.89 mV
SMILES: O=C(NCc1ccnc(OCC(F)(F)F)c1)N[C@@H]1CCc2ccccc2C1 [Compound 115]
- Kv7.3/7.5 selectivity criteria [1]: A (Selective compounds showed Kv7.4 and/or Kv7.3/7.5 ΔV1/2 equal to or lower than 15 mV (letter A in table 3))
- Kv7.4 selectivity criteria [2]: A (Selective compounds showed Kv7.4 and/or Kv7.3/7.5 ΔV1/2 equal to or lower than 15 mV (letter A in table 3))

- EC50 [3]: 1590 nM
- Kv7.2/7.3 ΔV1/2 [3]: 31.15 mV
SMILES: Cc1cccc2c1C(NC(=O)NCc1ccnc(OCC(F)(F)F)c1)CC2 (stereo not shown) [Compound 116]
- Kv7.3/7.5 selectivity criteria [1]: B (Non-selective compounds showed Kv7.4 and/or Kv7.3/7.5 ΔV1/2 higher than 15 mV (letter B in table 3))
- Kv7.4 selectivity criteria [2]: A (Selective compounds showed Kv7.4 and/or Kv7.3/7.5 ΔV1/2 equal to or lower than 15 mV (letter A in table 3))

- EC50 [3]: 1900 nM
- Kv7.2/7.3 ΔV1/2 [3]: 20.5 mV
SMILES: O=C(NCc1ccnc(OCC(F)(F)F)c1)NC1CCc2ccc(C(F)(F)F)cc21 (stereo not shown) [Compound 117]
- Kv7.3/7.5 selectivity criteria [1]: A (Selective compounds showed Kv7.4 and/or Kv7.3/7.5 ΔV1/2 equal to or lower than 15 mV (letter A in table 3))
- Kv7.4 selectivity criteria [2]: A (Selective compounds showed Kv7.4 and/or Kv7.3/7.5 ΔV1/2 equal to or lower than 15 mV (letter A in table 3))

- EC50 [3]: 1550 nM
- Kv7.2/7.3 ΔV1/2 [3]: 41.97 mV
SMILES: O=C(NCc1ccnc(OCC(F)(F)F)c1)N[C@@H]1CCc2c(Cl)cccc21 [Compound 118]
- Kv7.3/7.5 selectivity criteria [1]: B (Non-selective compounds showed Kv7.4 and/or Kv7.3/7.5 ΔV1/2 higher than 15 mV (letter B in table 3))
- Kv7.4 selectivity criteria [2]: B (Non-selective compounds showed Kv7.4 and/or Kv7.3/7.5 ΔV1/2 higher than 15 mV (letter B in table 3))

- EC50 [3]: 1080 nM
- Kv7.2/7.3 ΔV1/2 [3]: 36.41 mV
SMILES: O=C(NCc1ccnc(OCC(F)(F)F)c1)N[C@@H]1CCc2cc(F)c(F)cc21 [Compound 119]
- Kv7.3/7.5 selectivity criteria [1]: B (Non-selective compounds showed Kv7.4 and/or Kv7.3/7.5 ΔV1/2 higher than 15 mV (letter B in table 3))
- Kv7.4 selectivity criteria [2]: A (Selective compounds showed Kv7.4 and/or Kv7.3/7.5 ΔV1/2 equal to or lower than 15 mV (letter A in table 3))

- EC50 [3]: 276 nM
- Kv7.2/7.3 ΔV1/2 [3]: 16.57 mV
SMILES: O=C(NCc1ccnc(OCC(F)(F)F)c1)N[C@H]1CCc2cc(F)c(F)cc21 [Compound 120]
- Kv7.3/7.5 selectivity criteria [1]: A (Selective compounds showed Kv7.4 and/or Kv7.3/7.5 ΔV1/2 equal to or lower than 15 mV (letter A in table 3))
- Kv7.4 selectivity criteria [2]: B (Non-selective compounds showed Kv7.4 and/or Kv7.3/7.5 ΔV1/2 higher than 15 mV (letter B in table 3))

- EC50 [3]: 1560 nM
- Kv7.2/7.3 ΔV1/2 [3]: 38.54 mV
SMILES: O=C(NCc1ccnc(OCC(F)(F)F)c1)N[C@@H]1CCc2c(Cl)cccc21 [Compound 121]
- Kv7.3/7.5 selectivity criteria [1]: B (Non-selective compounds showed Kv7.4 and/or Kv7.3/7.5 ΔV1/2 higher than 15 mV (letter B in table 3))
- Kv7.4 selectivity criteria [2]: B (Non-selective compounds showed Kv7.4 and/or Kv7.3/7.5 ΔV1/2 higher than 15 mV (letter B in table 3))
